Test results taken from PubChem BioAssay (NCI).
“And” between values parts separate entries of the source, which are not always exact repeats. Equal entries are not always repeated.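 A five-concentration, 48-hour dose response in 96-well plates underlies each endpoint, interpolated linearly between surrounding concentrations. GI50 = concentration required for 50% inhibition of growth. TGI: total growth inhibition.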

Tests used:
Assay in all cases: inhibition of tumour cell growth, NCI panel, 48 h
[1] = test system: UACC-257 melanoma
[2] = test system: K-562 leukemia
[3] = test system: SF-539 CNS
[4] = test system: HOP-92 NSCLC
[5] = test system: MCF7 breast
[6] = test system: NCI/ADR-RES ovarian
[7] = test system: A549 NSCLC
[8] = test system: CCRF-CEM leukemia
[9] = test system: HL-60(TB) leukemia
[10] = test system: DU-145 prostate

SMILES	GI50 [1]	TGI [1]	GI50 [2]	TGI [2] [µM]	GI50 [3]	TGI [3]	GI50 [4]	TGI [4]	GI50 [5]	TGI [5] [µM]	GI50 [6]	TGI [6] [µM]	GI50 [7]	TGI [7]	GI50 [8]	TGI [8] [µM]	GI50 [9]	TGI [9] [µM]	GI50 [10]	TGI [10]
COC(=O)CCc1c(/C=C2\N=C(c3ccc[nH]3)C=C2OC)[nH]c(C)c1C(=O)OCc1ccccc1	1.16 µM	5.25 µM	0.252 µM	3.39	0.363 µM	1.83 µM	197 nM	0.73 µM	313 nM	4.78	0.437 µM	3.78	0.945 µM	38.7 µM	93.3 nM	> 58	446 nM	2.42	0.345 µM	> 55.6 µM
CN1CCN(Cc2ccc(NC(=O)c3[nH]ncc3Nc3cc(OC4CCCC4)ncn3)cc2)CC1	3.42 µM	9.6 µM	1.64 µM	13.3	1.9 µM	5.02 µM	6690 nM	18.6 µM	1590 nM	4.96	3.68 µM	15	2.11 µM	10.5 µM	2390 nM	11.2	1770 nM	4.3	2.35 µM	12.9 µM
CN1C(=O)C(C)(C)Oc2c(-c3cn(C)c(=O)c4[nH]ccc34)cc(S(C)(=O)=O)cc21	0.865 µM	> 100 µM	0.765 µM	> 100	0.58 µM	40.3 µM	408 nM	> 100 µM	338 nM	> 100	14.3 µM	> 100	0.989 µM	> 100 µM	1450 nM	> 100	281 nM	0.847	3.85 µM	> 100 µM
C[C@H](c1ccc(Cl)cc1[N+](=O)[O-])N1C(=O)c2cc(I)ccc2NC(=O)[C@H]1c1ccc(Cl)cc1	33.9 µM	> 100 µM	77 µM	> 100	> 100 µM	> 100 µM	2790 nM	> 100 µM	6530 nM	> 100	> 100 µM	> 100	6.01 µM	> 100 µM	> 100000 nM	> 100	> 100000 nM	> 100	> 100 µM	> 100 µM
COc1ccc(CNC(=O)c2c(C)n([O-])c3cc(F)c(F)cc3[n+]2=O)cc1	10.4 µM	23.6 µM	1.93 µM	4.05	16.5 µM	30.6 µM	14900 nM	32 µM	5720 nM	19.3	17 µM	31.6	17.6 µM	36.8 µM	3200 nM	12.4	2640 nM	12.2	13.7 µM	26.5 µM
CNCC1CCn2c(c(C3=C(c4cn(C)c5ccccc45)C(=O)NC3=O)c3ccccc32)C1 (stereo not given)	3.56 µM	7.55 µM	3.29 µM	8.41	3.69 µM	7.21 µM	130 nM	8.64 µM	1740 nM	5.17	10.2 µM	25	3.16 µM	10.6 µM	2890 nM	12	3700 nM	8.61	3.76 µM	8.6 µM
CC(=O)Nc1cc(CN2CCCCC2)c(O)c2ncccc12	–	88.7 µM	–	> 100	–	> 100 µM	–	> 100 µM	–	> 100	–	> 100	–	> 100 µM	–	> 100	–	36.8	–	75.7 µM
COc1ccc(-c2cc3c(N)ncnc3o2)cc1	> 25 µM	> 25 µM	> 25 µM	> 25	> 25 µM	> 25 µM	17100 nM	> 25 µM	> 25000 nM	> 25	> 25 µM	> 25	> 25 µM	> 25 µM	> 25000 nM	> 25	> 25000 nM	> 25	19.9 µM	> 25 µM
C=CC(=O)Nc1cccc(Nc2nc(Nc3ccc(N4CCN(C(C)=O)CC4)cc3OC)ncc2C(F)(F)F)c1	3.97 µM and 2.97 µM	> 10 µM and 68.8 µM	8.12 µM and 5.61 µM	> 100	4.47 µM and 3.17 µM	> 10 µM and 14.2 µM	787 nM and 525 nM	4.88 µM and 4.21 µM	1410 nM and 933 nM	> 100	7.5 µM and 9.09 µM	> 74.4	2.52 µM and 1.81 µM	> 10 µM and 12.1 µM	3620 nM and 4320 nM	> 65.5	1260 nM and 2260 nM	> 34	4.23 µM and 2.39 µM	> 10 µM and 17.3 µM
CCCNC(=O)Nc1ccc2c(c1)Cc1cc(N(CCCl)CCCl)ccc1-2	–	> 100 µM	–	> 100	–	66.2 µM	–	67.8 µM	–	77.5	–	> 100	–	> 100 µM	–	> 100	–	> 100	–	60.9 µM
Cn1c(=O)c2[nH]cnc2n(C)c1=O.[CH2-]C(Cc1cccc2cc(C(=O)O)c(=O)oc12)OC.[Hg+2].[OH-] (stereo not given)	17.9 µM	31.8 µM	18.9 µM	77.4	14.6 µM	29.8 µM	15600 nM	29.9 µM	16600 nM	33	19.8 µM	38.1	19 µM	37.4 µM	3210 nM	18	30500 nM	58.3	17 µM	31.6 µM
O=[N+]([O-])c1ccc2nc(=S)[nH]n2c1	–	> 100 µM	–	> 100	–	> 100 µM	–	> 100 µM	–	> 100	–	> 100	–	> 100 µM	–	> 100	–	> 100	–	> 100 µM
COc1cc2c3c(n(CCCN4CCN(CCO)CC4)c(=O)c2cc1OC)-c1cc2c(cc1C3=O)OCO2	30.6 µM	> 81.4 µM	5.95 µM	29.4	1.46 µM	6.3 µM	> 21200 nM	> 100 µM	873 nM	17.5	18.2 µM	> 100	4.23 µM	20.7 µM	203 nM	1.8	6350 nM	> 41.7	0.107 µM	2.41 µM
Nc1ncnc2c1ncn2C1OC(C(=O)OCCO)C(O)C1O (stereo not given)	–	> 100 µM	–	> 100	–	> 100 µM	–	> 100 µM	–	> 100	–	> 100	–	> 100 µM	–	> 100	–	> 100	–	> 100 µM
CCN1C(=O)N(CC)C2C1NN=c1s/c(=C\c3cnc(C)n3C)c(=O)n12 (stereo not given)	4.69 µM	> 100 µM	0.61 µM	> 100	1.78 µM	5.19 µM	4850 nM	96.1 µM	676 nM	> 100	10.3 µM	> 100	3.99 µM	> 100 µM	2750 nM	> 100	1610 nM	4.03	2.51 µM	> 100 µM
